# In patent US4456611A, “Derivatives of 2-[3-(3-indoly)2-amino propionyloxy] acetic acid, and seritoning increasing use thereof” (Laboratoires Panmedica, priority 1981, dated 1984):
# Experiments:
# [1] = tested on: endogenous serotonin in the brain; experiment: biochemical assay of endogenous serotonin in the brain of rats after oral administration of a single dose; format: in vivo; conditions: orally, single dose of 10 mg/kg, Wistar male adult rats
# Protocol: The compounds according to the invention show remarkable pharmacological activities, in particular on the central nervous system. These assays were carried out after administration orally of a single dose of 10 mg/kg in Wistar male adult rats.
# [2] = acute toxicity in the mouse (LD50); conditions: in vivo, po, orally
# Protocol: The acute toxicities of the derivatives according to the invention in the mouse are very much less than those of L 5-HTP. Thus the LD50's of all of the compounds according to the invention are higher than 1250 mg/kg, whereas the LD50 (orally) of L 5-HTP is equal to 700 mg/kg.
SMILES,% increase of brain serotonin [1],LD50 [2]
"CCCCCCCCCCCCOC(=O)COC(=O)[C@@H](N)Cc1c[nH]c2ccc(O)cc12 [Example 13b, n-dodecyl L-2-[3-(5-hydroxy 3-indolyl) 2-aminopropionyloxy]acetate]",26%,–
"CCCCOC(=O)COC(=O)[C@@H](N)Cc1c[nH]c2ccc(O)cc12 [Example 8b, n-butyl L-2-[3-(5-hydroxy 3-indolyl) 2-aminopropionyloxy]acetate]",20%,–
"N[C@@H](Cc1c[nH]c2ccc(O)cc12)C(=O)O [(L)5 HTP, 5-hydroxy-tryptophane, reference compound]",10%,700 mg/kg
"CCOC(=O)COC(=O)[C@@H](N)Cc1c[nH]c2ccc(O)cc12 [Example 6b, Ethyl L-2-[3-(5-hydroxy 3-indolyl) 2-aminopropionyloxy]acetate]",22%,–
"CC(OC(=O)COC(=O)[C@@H](N)Cc1c[nH]c2ccc(O)cc12)C(C)(C)C (stereo partly drawn) [Example 14c, (3,3-dimethyl) 2-butyl L-2-[3-(5-hydroxy 3-indolyl) 2-aminopropionyloxy]acetate]",32%,–
"CCCCCCCCOC(=O)COC(=O)[C@@H](N)Cc1c[nH]c2ccc(O)cc12 [Example 12b, n-octyl L-2-[3-(5-hydroxy 3-indolyl) 2-aminopropionyloxy]acetate]",15%,–
"N[C@@H](Cc1c[nH]c2ccc(O)cc12)C(=O)OCC(=O)OCC12CC3CC(CC(C3)C1)C2 [Example 15b, 1-adamantyl methyl L-2-[3-(5-hydroxy 3-indolyl) 2-aminopropionyloxy]acetate]",17%,–
